Laboratory results taken from patent publication US20260184700A1, “PDK1 REGULATORY COMPOUND AND COMPOSITION CONTAINING THE SAME” (PROVIBIO CO., LTD., priority 2024, published 2026).

How the values were obtained:
[1] = system: bleomycin-treated Balb/c mice; assay: Bleomycin-induced pulmonary fibrosis animal model; format: in vivo, mouse; settings: bleomycin mice lung, vs BLM-treated group
Excerpt: To evaluate the therapeutic efficacy of the compound according to the present invention against pulmonary fibrosis, an animal model of pulmonary fibrosis induced by bleomycin intratracheal administration was established.
For this purpose, 8-week-old male Balb/c mice were subjected to general anesthesia using an inhalation anesthetic (2-3% isoflurane in oxygen), followed by disinfection of the neck region, skin incision, and exposure of the trachea.
Bleomycin (Sigma-Aldrich, USA) was directly administered into the trachea at a concentration of 5 mg/kg in a solution of 100 μL.
Two days prior to Bleomycin administration, the compound of the present invention or the comparative drug was administered intraperitoneally at the specified concentration and dose, and the administration was continued once daily for a total of 14 days.
The experimental groups included Normal, Bleomycin alone (BLM), and BLM plus the compound of the present invention (BLM+GO88, 0.2 mg/kg).
Ten days later, the mice were euthanized humanely using carbon dioxide gas, the trachea was incised, and PBS was injected into the trachea to remove blood from the lungs.
The lung tissue washed with PBS was excised, fixed in 4% paraformaldehyde solution for 24 hours, and then paraffin blocks and tissue sections were prepared. The prepared sections were subjected to pathological analysis using H & E, Masson's trichrome, and Sirius red staining.
Additionally, immunohistochemical (IHC) staining was performed for α-SMA (α-smooth muscle actin), an indicator of lung fibroblast activation.

[2] = system: Collagen I in human lung fibroblasts MRC-5; assay: TGF-β-induced Collagen I expression in MRC-5 cells, Western blot; format: cell-based; settings: MRC-5, TGF-β (5 ng/ml), GO88 0.5 μM and 1 μM, 24 hours
Protocol: To confirm that the compound of the present invention directly acts on fibrosis-related mechanisms, in vitro experiments were performed using human lung fibroblasts MRC-5 cell lines (Korea Cell Bank).
First, MRC-5 cells were seeded at 5×10^3 cells per well in a 6-well plate and stabilized for 24 hours.
Subsequently, experimental groups were established, including a control group, a group treated with TGF-β (5 ng/ml) alone, and groups treated with TGF-β and the compound GO88 from the present invention at concentrations of 0.5 μM and 1 μM, respectively.
After treating each group with the drugs for 24 hours, the cell medium was removed, and the cells were washed twice with cold PBS. Then, RIPA lysis buffer containing phosphatase inhibitor and protease inhibitor was added to each group to extract proteins.
The extracted proteins were incubated at 4° C. for 30 minutes, then centrifuged at 13,000 rpm for 15 minutes, and the supernatant was collected. The total protein concentration was measured using the BCA protein quantification method.
Subsequently, the proteins were separated by SDS-PAGE, transferred to a PVDF membrane, and Western blot analysis was performed.
The expression levels of Collagen I, a marker related to pulmonary fibrosis, were confirmed, with GAPDH used as an internal control.

MRL/lpr mice = assay: Lupus animal model (MRL/lpr mice); format: in vivo, mouse; settings: 41-week-old female MRL/lpr mice; GO15F (30 mg/kg), GO48 (1 mg/kg), GO88 (0.5 mg/kg) intraperitoneally once daily
Excerpt: The MRL/MpJ-Faslpr/J (Hereinafter Referred to as “MRL/lpr”) used in this experiment is one of the representative animal models for systemic lupus erythematosus (SLE), known to produce various autoantibodies, including antinuclear antibodies, due to the lpr (lymphoproliferation) gene.
In this invention, the period up to 9 weeks of age was considered the pre-disease stage, and the period after 23 weeks of age was considered the post-disease stage, and efficacy verification experiments using this model were conducted.
MRL/lpr mice were imported from The Jackson Laboratory and acclimatized for one week in an SPF (Specific Pathogen Free) facility maintained at a temperature of 21-24° C., humidity of 40-60%, and a 12-hour light-dark cycle (lights on at 7:00 AM, lights off at 7:00 PM). […]
The serum separated at the time of necropsy of the lupus animal model was analyzed using the ‘IgG (Total) Mouse Uncoated ELISA Kit (Invitrogen, Cat. #88-50400)’ to measure the concentration of total IgG.
Capture antibody (anti-mouse IgG) diluted 1/250 in coating buffer was added to each well of a 96-well plate (Nunc™ MaxiSorp™ ELISA Plates, Uncoated, BioLegend, Cat. #423501) at 100 μl per well, and the plate was incubated at 4° C. for 16 hours.
To investigate the effect of GO15F administration on changes in the ratio of immune cells in the spleen of a lupus animal model, the spleens of mice administered each compound were excised, cells were extracted, and the cells were suspended in MACS buffer (autoMACS Washing Solution, Miltenyi Biotec., Cat. #130-092-987).
For flow cytometry analysis, FACS tubes (5 mL round tubes, Falcon, Cat. #352052) were used. To prevent non-specific binding of antibodies, 1 μg/mL of anti-mouse CD16/CD32 (InVivoPlus anti-mouse CD16/CD32, BioXCell, Cat. #BP0307) for 30 minutes to prevent non-specific binding of the antibody, then centrifuge at 1,500 rpm for 5 minutes and resuspend in 100 μL of MACS buffer.
For B cells, each FACS tube was stained with 1 μg/mL of FITC-conjugated anti-B220 antibody (eBioscience™, Cat. #11-0452-81) at 4° C. for 30 minutes, then washed with 2 mL of MACS buffer.
For T cells, each FACS tube was stained with 1 μg/mL PerCP-Cy5.5-conjugated anti-CD3 (Biolegend, Cat. #100218) at 4° C. for 30 minutes.
For macrophages, each FACS tube was stained with 1 μg/mL of PE-conjugated anti-CD11b antibody (Biolegend, Cat. #101207) and PerCP-Cy5.5-conjugated anti-F4/80 (Biolegend, Cat. #123128) and incubated at 4° C. for 30 minutes. The tubes were then washed with 2 mL of MACS buffer.
To investigate the effects of compound GO15F according to the present invention on systemic immune responses in a lupus animal model, gene expression analysis of cytokines in kidney tissue was performed as described in (1).
Each kidney tissue was used to isolate total RNA using TRIzol™ (Invitrozen, Cat. #15596018). RNA from each mouse was quantified at 1 μg using a micro-quantitative spectrophotometer (ThermoFisher Scientific, ND2000) and cDNA was synthesized.
The synthesized cDNA from each mouse was quantified to a concentration of 50 ng using a micro-quantitative spectrophotometer, and qPCR was performed for the cytokines ‘IL-2, IL-6, IL-10, IL-17, TNF-α, IFN-γ’ using a SYBR green probe (CFX96, BIO-RAD).
To investigate the effects of drug administration on renal tissue in MRL/lpr mice, the tissue was fixed in 10% neutral buffered formalin at room temperature, followed by stepwise ethanol penetration for dehydration. The tissue was then embedded in xylene and paraffin.
The blocked tissues were sectioned into 4 μm thick slices using a microtome, followed by deparaffinization, hydration, and staining.
Hematoxylin & Eosin staining, PAS staining, and Masson trichrome staining were performed for pathological evaluation of the tissues. […]

Nc1ncccc1C(=O)NCCCCCCCCCCCCN1CCNCC1 [Compound 14, 2-Amino-N-(12-(piperazin-1-yl)dodecyl)nicotinamide]
collagen deposition (Masson's trichrome and Sirius red staining) [1]: significantly reduced
expression of α-SMA (IHC) [1]: significantly suppressed
protein expression of Collagen I [2]: inhibited in a concentration-dependent manner
hair growth on the facial region (MRL/lpr mice): hair growth was confirmed
